Earlier results, collected in patent US7485705B2, “Water-soluble tetrazolium compounds” (Dojindo Laboratories, priority 2003, dated 2009).

Row | Compound | water solubility of the formazan formed upon receiving hydrogen
1 | Cc1nc(-[n+]2nc(-c3ccccc3)nn2-c2ccccc2)sc1C.[Br-] [MTT, [3-(4,5-dimethylthiazol-2-yl)-2,5-diphenyltetrazolium bromide]] | insoluble in water
2 | COc1cc(-c2ccc(-[n+]3nc(-c4ccccc4)nn3-c3ccc([N+](=O)[O-])cc3)c(OC)c2)ccc1-[n+]1nc(-c2ccccc2)nn1-c1ccc([N+](=O)[O-])cc1.[Cl-].[Cl-] [nitro-TB, 3,3′-[3,3′-dimethoxy-(1,1′-biphenyl)-4,4′-diyl]-bis-[2-(4-nitrophenyl)-5-2H tetrazolium chloride]] | insoluble in water
